According to patent US20040176446A1, “Substituted amino dicarboxylic acid derivatives” (priority 2001, published 2004):

melting point [°C]	SMILES
> 240	O=C(O)CCCCN(CCc1cc(-c2ccc(F)cc2F)ccc1OCc1ccc(-c2ccc(C(F)(F)F)cc2)cc1)Cc1ccc(C(=O)O)cc1 [Example 2, 4-({(4-Carboxybutyl)[2-(2′,4′-difluoro-4-{[4′-(trifluoromethyl)-1,1′-biphenyl-4-yl]methoxy}-1,1′-biphenyl-3-yl)ethyl]amino}methyl)benzoic acid]
> 240	O=C(O)CCCCN(CCc1cc(-c2ccc(F)cc2F)ccc1OCc1ccc(C2CCCCC2)cc1)Cc1ccc(C(=O)O)cc1 [Example 1, 4-{[(4-Carboxybutyl)(2-{4-[(4-cyclohexylbenzyl)oxy]-2′,4′-difluoro-1,1′-biphenyl-3-yl}ethyl)amino]methyl}benzoic acid]
